Data taken from ChEMBL document CHEMBL3885881, “DrugMatrix”.

Species on record: Rattus norvegicus
Test: DrugMatrix - Regimen: Daily Repeat
Type: toxicity, organism-based, Sprague-Dawley
Design: regimen Daily Repeat, gender Male, age 6-8 weeks
Conditions: in vivo, po, route oral GAVAGE, […]; for ABSOLUTE BASOPHIL / ABSOLUTE EOSINOPHIL / ABSOLUTE LYMPHOCYTE / ABSOLUTE MONOCYTE / ABSOLUTE SEGMENTED NEUTROPHIL / BASOPHIL / EOSINOPHIL / ERYTHROCYTE COUNT / HEMATOCRIT / HEMOGLOBIN / LEUKOCYTE COUNT / LYMPHOCYTE / MEAN CORPUSCULAR HEMOGLOBIN / MEAN CORPUSCULAR HEMOGLOBIN CONCENTRATION / MEAN CORPUSCULAR VOLUME / MONOCYTE / NEUTROPHIL / NUCLEATED RED BLOOD CELLS / PLATELET COUNT: tissue Blood; for ALANINE AMINOTRANSFERASE / ALBUMIN / ALKALINE PHOSPHATASE / ASPARTATE AMINOTRANSFERASE / BLOOD UREA NITROGEN / CARBON DIOXIDE / CHLORIDE / CHOLESTEROL / CREATINE PHOSPHOKINASE / CREATININE / GLUCOSE / LACTATE DEHYDROGENASE / LIPASE / PHOSPHORUS / POTASSIUM / SODIUM / TOTAL BILIRUBIN / TOTAL PROTEIN / URIC ACID: tissue Plasma
[1] = 0 mg/kg, 72 h, dose level Control, time 3 day
[2] = 0 mg/kg, 120 h, dose level Control, time 5 day
[3] = 0.05 mg/kg, 72 h, dose level Low, time 3 day

## COCc1c(C(C)C)nc(C(C)C)c(/C=C/[C@@H](O)C[C@@H](O)CC(=O)O)c1-c1ccc(F)cc1 [CERIVASTATIN]
[1]
  ABSOLUTE BASOPHIL: 0 CELLS/uL
  ABSOLUTE EOSINOPHIL: 0 CELLS/uL
  ABSOLUTE LYMPHOCYTE: 11091.17 CELLS/uL
  ABSOLUTE MONOCYTE: 172.17 CELLS/uL
  ABSOLUTE SEGMENTED NEUTROPHIL: 1186.67 CELLS/uL
  BASOPHIL: 0%
  EOSINOPHIL: 0%
  ERYTHROCYTE COUNT: 5.87 x10E6/uL
  HEMATOCRIT: 36.87%
  HEMOGLOBIN: 14.03 G/DL
  LEUKOCYTE COUNT: 12.45 x10E3/uL
  LYMPHOCYTE: 88.67%
  MEAN CORPUSCULAR HEMOGLOBIN: 23.93 pg
  MEAN CORPUSCULAR HEMOGLOBIN CONCENTRATION: 38.1 G/DL
  MEAN CORPUSCULAR VOLUME: 62.73 fL
  MONOCYTE: 1.5%
  NEUTROPHIL: 9.83%
  NUCLEATED RED BLOOD CELLS: 0 /100WBC
  PLATELET COUNT: 1150.33 x10E3/uL
  ALANINE AMINOTRANSFERASE: 67.17 u/L
  ALBUMIN: 4.03 G/DL
  ALKALINE PHOSPHATASE: 462.5 u/L
  ASPARTATE AMINOTRANSFERASE: 88 u/L
  BLOOD UREA NITROGEN: 13.17 mg/dL
  CARBON DIOXIDE: 29.33 mmol/L
  CHLORIDE: 101 MEQ/L
  CHOLESTEROL: 69.17 mg/dL
  CREATINE PHOSPHOKINASE: 292.5 u/L
  CREATININE: 0.17 mg/dL
  GLUCOSE: 167.5 mg/dL
  LACTATE DEHYDROGENASE: 198.5 u/L
  LIPASE: 10.67 u/L
  PHOSPHORUS: 11.73 mg/dL
  POTASSIUM: 5.91 MEQ/L
  SODIUM: 143.3 MEQ/L
  TOTAL BILIRUBIN: 0.18 mg/dL
  TOTAL PROTEIN: 5.7 G/DL
  URIC ACID: 1.3 mg/dL
[2]
  ABSOLUTE BASOPHIL: 0 CELLS/uL
  ABSOLUTE EOSINOPHIL: 64.33 CELLS/uL
  ABSOLUTE LYMPHOCYTE: 12494.67 CELLS/uL
  ABSOLUTE MONOCYTE: 117 CELLS/uL
  ABSOLUTE SEGMENTED NEUTROPHIL: 1340.67 CELLS/uL
  BASOPHIL: 0%
  EOSINOPHIL: 0.33%
  ERYTHROCYTE COUNT: 5.82 x10E6/uL
  HEMATOCRIT: 36.97%
  HEMOGLOBIN: 14.18 G/DL
  LEUKOCYTE COUNT: 14.02 x10E3/uL
  LYMPHOCYTE: 89%
  MEAN CORPUSCULAR HEMOGLOBIN: 24.42 pg
  MEAN CORPUSCULAR HEMOGLOBIN CONCENTRATION: 38.4 G/DL
  MEAN CORPUSCULAR VOLUME: 63.52 fL
  MONOCYTE: 0.83%
  NEUTROPHIL: 9.83%
  NUCLEATED RED BLOOD CELLS: 0 /100WBC
  PLATELET COUNT: 1097.83 x10E3/uL
  ALANINE AMINOTRANSFERASE: 58.83 u/L
  ALBUMIN: 3.92 G/DL
  ALKALINE PHOSPHATASE: 414.17 u/L
  ASPARTATE AMINOTRANSFERASE: 89.17 u/L
  BLOOD UREA NITROGEN: 16.83 mg/dL
  CARBON DIOXIDE: 29.17 mmol/L
  CHLORIDE: 100.33 MEQ/L
  CHOLESTEROL: 54.5 mg/dL
  CREATINE PHOSPHOKINASE: 386.17 u/L
  CREATININE: 0.23 mg/dL
  GLUCOSE: 184.17 mg/dL
  LACTATE DEHYDROGENASE: 229.17 u/L
  LIPASE: 10.83 u/L
  PHOSPHORUS: 10.88 mg/dL
  POTASSIUM: 5.97 MEQ/L
  SODIUM: 142.2 MEQ/L
  TOTAL BILIRUBIN: 0.12 mg/dL
  TOTAL PROTEIN: 5.63 G/DL
  URIC ACID: 1.55 mg/dL
[3]
  ABSOLUTE BASOPHIL: 0 CELLS/uL
  ABSOLUTE EOSINOPHIL: 0 CELLS/uL
  ABSOLUTE LYMPHOCYTE: 11310.33 CELLS/uL
  ABSOLUTE MONOCYTE: 175.33 CELLS/uL
  ABSOLUTE SEGMENTED NEUTROPHIL: 1347.67 CELLS/uL
  BASOPHIL: 0%
  EOSINOPHIL: 0%
  ERYTHROCYTE COUNT: 5.68 x10E6/uL
  HEMATOCRIT: 35.3%
  HEMOGLOBIN: 13.6 G/DL
  LEUKOCYTE COUNT: 12.83 x10E3/uL
  LYMPHOCYTE: 88.33%
  MEAN CORPUSCULAR HEMOGLOBIN: 23.97 pg
  MEAN CORPUSCULAR HEMOGLOBIN CONCENTRATION: 38.53 G/DL
  MEAN CORPUSCULAR VOLUME: 62.17 fL
  MONOCYTE: 1.33%
  NEUTROPHIL: 10.33%
  NUCLEATED RED BLOOD CELLS: 0 /100WBC
  PLATELET COUNT: 1230 x10E3/uL
  ALANINE AMINOTRANSFERASE: 65 u/L
  ALBUMIN: 4.07 G/DL
  ALKALINE PHOSPHATASE: 429 u/L
  ASPARTATE AMINOTRANSFERASE: 96.67 u/L
  BLOOD UREA NITROGEN: 15.67 mg/dL
  CARBON DIOXIDE: 25 mmol/L
  CHLORIDE: 103 MEQ/L
  CHOLESTEROL: 64 mg/dL
  CREATINE PHOSPHOKINASE: 269.33 u/L
  CREATININE: 0.13 mg/dL
  GLUCOSE: 169.67 mg/dL
  LACTATE DEHYDROGENASE: 270.33 u/L
  LIPASE: 10 u/L
  PHOSPHORUS: 12.17 mg/dL
  POTASSIUM: 6.2 MEQ/L
  SODIUM: 144.27 MEQ/L
  TOTAL BILIRUBIN: 0.13 mg/dL
  TOTAL PROTEIN: 5.63 G/DL
  URIC ACID: 1.9 mg/dL
